# Tested on: α7 integrin promoter
# Experiment: muscle cell-based assay: α7βgal+/− myoblasts/myotubes, LacZ reporter, β-galactosidase cleavage of FDG
# Design: species or system mouse; Results in α7+/− β-galactosidase assay: scale not given here
# Conditions: for Results in a α7+/− β-galactosidase assay, Myotubes, 0.5 uM: compound at 0.5 uM; for Results in a α7+/− β-galactosidase assay, Myotubes, 1 uM: compound at 1 uM; for Results in a α7+/− β-galactosidase assay, Myotubes, 5 uM: compound at 5 uM; for Results in a α7+/− β-galactosidase assay, Myotubes, 10 uM: compound at 10 uM; for Results in a α7+/− β-galactosidase assay, Myotubes, 20 uM: compound at 20 uM; for Results in a α7+/− β-galactosidase assay, Myotubes, 40 uM: compound at 40 uM; for Results in α7+/− β-galactosidase assay: Myoblasts; for EC50 / AC50: Mus musculus; for EC50: given as log AC50 (negative values), read-out: Fit LogAC50 (converted); for Fit Curve Class: key not given; for AC50: log of AC50, given with negative sign, unit of AC50 not given, read-out: Fit Log AC50 (converted)
# Experimental: An α7 integrin null mouse was produced in which exon 1 of the gene encoding the α7 integrin was replaced by the LacZ reporter. In these mice, all the transcriptional regulatory elements of the α7 integrin promoter were retained, allowing β-galactosidase to report expression of 7 integrin. A primary myoblast cell line (designated α7βgal^+/−) isolated from 10 day old α7^+/− pups were analyzed for the ability of β-galactosidase to report α7 integrin expression. α7βgal^+/− myoblasts were differentiated and subjected to X-gal staining and western analysis (FIGS. 1A and 1B).
# The activity of the α7 integrin promoter was measured by β-galactosidase cleavage of the non-fluorescent compound fluorescein di-β-D-galactopyranoside (FDG) to fluorescein. This assay was used to screen compound libraries to identify molecules that up-regulate α7 integrin expression in muscle.
# Also evaluated was the effect of various isoforms of laminin and the ligand for α7β1 integrin on integrin expression. Positive hits were subjected to dose-response analysis, western analysis and a myostatin counterscreen (a negative regulator of muscle growth).
# [1] = curve fit, activity at zero concentration
# [2] = Table 12, fitted activity at zero concentration
# [3] = Table 12 Compound data, concentration-response curve fit
smiles,measurement,setting,value
Cc1cccc(NCC(=O)N/N=C/c2ccccn2)c1 [drawing 483],"Results in a α7+/− β-galactosidase assay, Myotubes, 0.5 uM",,0.07633
same,"Results in a α7+/− β-galactosidase assay, Myotubes, 1 uM",,−0.04251
same,"Results in a α7+/− β-galactosidase assay, Myotubes, 5 uM",,0.2712
same,"Results in a α7+/− β-galactosidase assay, Myotubes, 10 uM",,−0.04805
same,"Results in a α7+/− β-galactosidase assay, Myotubes, 20 uM",,0.03613
same,"Results in a α7+/− β-galactosidase assay, Myotubes, 40 uM",,−0.1705
CC(=O)Oc1c(Cl)cc(/C=C2\C(=O)Nc3ccccc32)cc1Cl [drawing 506],"Results in a α7+/− β-galactosidase assay, Myotubes, 0.5 uM",,−0.05659
same,"Results in a α7+/− β-galactosidase assay, Myotubes, 1 uM",,−0.06941
same,"Results in a α7+/− β-galactosidase assay, Myotubes, 5 uM",,−0.2138
same,"Results in a α7+/− β-galactosidase assay, Myotubes, 10 uM",,−0.4615
same,"Results in a α7+/− β-galactosidase assay, Myotubes, 20 uM",,−0.2526
same,"Results in a α7+/− β-galactosidase assay, Myotubes, 40 uM",,−0.403
O=C(Nc1cc(-c2nc3ccccc3s2)ccc1Cl)c1ccc2c(c1)OCO2 [drawing 626],Results in α7+/− β-galactosidase assay,0.5 uM,−0.04702
same,Results in α7+/− β-galactosidase assay,1 uM,−0.1444
same,Results in α7+/− β-galactosidase assay,5 uM,0.02573
same,Results in α7+/− β-galactosidase assay,10 uM,0.1301
same,Results in α7+/− β-galactosidase assay,20 uM,−0.1679
same,Results in α7+/− β-galactosidase assay,40 uM,−0.4411
CN1C(=O)N(CC(=O)N2CCN(S(=O)(=O)c3ccc(Cl)s3)CC2)C(=O)C12CCCCC2 [drawing 493],"Results in a α7+/− β-galactosidase assay, Myotubes, 0.5 uM",,0.02298
same,"Results in a α7+/− β-galactosidase assay, Myotubes, 1 uM",,0.1534
same,"Results in a α7+/− β-galactosidase assay, Myotubes, 5 uM",,−0.342
same,"Results in a α7+/− β-galactosidase assay, Myotubes, 10 uM",,0.1222
same,"Results in a α7+/− β-galactosidase assay, Myotubes, 20 uM",,−0.2548
same,"Results in a α7+/− β-galactosidase assay, Myotubes, 40 uM",,−0.1971
CCNC(=O)COC(=O)c1cc(-c2ccco2)nc2ccccc12 [Compound 175],EC50,,5.62 µM
same,Score,Table 12 compound data,42
same,Fit Curve Class,curve class number,2.1
same,Fit HillSlope,curve fit,1.3443
same,Fit Zero Activity [%],[1],−62.687%
COc1cc(CNCc2ccc(C(=O)O)cc2)ccc1OCc1ccc(F)cc1.Cl [Compound 57],AC50,Table 12,4.47 µM
same,Fit HillSlope,"Table 12, curve fit",1.7529
same,Fit Zero Activity [%],[2],−0.5596%
same,Fit Curve Class,Table 12,2.1
same,Score,[3],45
CN1C(=O)/C(=C(/C#N)c2nc3ccccc3[nH]2)c2ccccc21 [drawing 592],Results in α7+/− β-galactosidase assay,0.5 uM,−0.1972
same,Results in α7+/− β-galactosidase assay,1 uM,−0.1961
same,Results in α7+/− β-galactosidase assay,5 uM,−0.2667
same,Results in α7+/− β-galactosidase assay,10 uM,0.04652
same,Results in α7+/− β-galactosidase assay,20 uM,−0.456
same,Results in α7+/− β-galactosidase assay,40 uM,−0.5499
CCOC(=O)C1=C(NC(=O)c2ccc(OC)c(S(=O)(=O)N3CCCCC3C)c2)Nc2ccccc2N=C1CC (centres unmarked) [drawing 429],"Results in a α7+/− β-galactosidase assay, Myotubes, 0.5 uM",,−0.08852
same,"Results in a α7+/− β-galactosidase assay, Myotubes, 1 uM",,0.05126
same,"Results in a α7+/− β-galactosidase assay, Myotubes, 5 uM",,−0.2482
same,"Results in a α7+/− β-galactosidase assay, Myotubes, 10 uM",,−0.1853
same,"Results in a α7+/− β-galactosidase assay, Myotubes, 20 uM",,−0.1051
same,"Results in a α7+/− β-galactosidase assay, Myotubes, 40 uM",,−0.1944
COc1ccccc1CC(=O)Nc1cc(S(=O)(=O)N2CCOCC2)ccc1N1CCOCC1 [drawing 699],Results in α7+/− β-galactosidase assay,0.5 uM,0.122
same,Results in α7+/− β-galactosidase assay,1 uM,−0.02918
same,Results in α7+/− β-galactosidase assay,5 uM,0.0982
same,Results in α7+/− β-galactosidase assay,10 uM,0.2162
same,Results in α7+/− β-galactosidase assay,20 uM,−0.2175
same,Results in α7+/− β-galactosidase assay,40 uM,−0.3265
O=Cc1cnc(N2CCCCC2)s1 [Compound 191],EC50,,11.2 µM
same,Score,Table 12 compound data,42
same,Fit Curve Class,curve class number,2.1
same,Fit HillSlope,curve fit,4.9549
same,Fit Zero Activity [%],[1],−19.3188%
Cc1nc(/C=C2\C(=O)Nc3ccccc32)c[nH]1 [drawing 480],"Results in a α7+/− β-galactosidase assay, Myotubes, 0.5 uM",,0.01879
same,"Results in a α7+/− β-galactosidase assay, Myotubes, 1 uM",,−0.05703
same,"Results in a α7+/− β-galactosidase assay, Myotubes, 5 uM",,0.093
same,"Results in a α7+/− β-galactosidase assay, Myotubes, 10 uM",,0.007066
same,"Results in a α7+/− β-galactosidase assay, Myotubes, 20 uM",,0.01022
same,"Results in a α7+/− β-galactosidase assay, Myotubes, 40 uM",,−0.04283
C=CCOc1ccc(C(=O)/C=C2\C(=O)Nc3ccccc32)cc1 [drawing 353],"Results in a α7+/− β-galactosidase assay, Myotubes, 0.5 uM",,−0.02111
same,"Results in a α7+/− β-galactosidase assay, Myotubes, 1 uM",,−0.0826
same,"Results in a α7+/− β-galactosidase assay, Myotubes, 5 uM",,−0.09703
same,"Results in a α7+/− β-galactosidase assay, Myotubes, 10 uM",,0.05145
same,"Results in a α7+/− β-galactosidase assay, Myotubes, 20 uM",,−0.2835
same,"Results in a α7+/− β-galactosidase assay, Myotubes, 40 uM",,−0.2827
CN(C)S(=O)(=O)c1ccc(C(=O)Nc2nc3ccccc3[nH]2)cc1 [Compound 116],AC50,Table 12,8.91 µM
same,Fit HillSlope,"Table 12, curve fit",1.5579
same,Fit Zero Activity [%],[2],−9.8246%
same,Fit Curve Class,Table 12,2.1
same,Score,[3],43
